Results on 5 compounds are retold here after US9655980B2, “Theranostic platform for targeted cancer therapy and drug delivery monitoring” (University of Pittsburgh—Of the Commonwealth System of …, priority 2012, dated 2017).

Data set [1] concerns wild-type mouse malignant astrocytoma DBT (wt-DBT) cells. Description: In vitro cytotoxicity, hemocytometer-based trypan blue dye exclusion. The data set is classed as cell-based. Particulars: for cell viability: 2×10^−7 and 1×10^−5 M, 48 h. From the text:
FIG. 4 is a graph showing the results cell viability tests of QR-G1-COOH and QR-G2-COOH on the wt-DBT cell line. Values are presented as mean±standard deviation.
The in vitro cytotoxicity of QR-G1-COOH and QR-G2-COOH against wild-type mouse malignant astrocytoma DBT (wt-DBT) cells was investigated using a hemocytometer-based trypan blue dye exclusion method.

Data set [2] can be described thus: UV-vis absorption and emission spectra (photophysical properties). The data set is classed as physicochemical. From the text:
FIG. […]
Similar observations have been reported on extended perylenediimides. […] This fluorescence enhancement in pluronic compared to water can be explained by the disruption of the non-fluorescent dye aggregates by pluronic, which formed micelles with dye monomers inside. The strong absorption in the NIR region and weak emission may render QR-G1-COOH to a promising photoacoustic imaging agent.

Data set [3] in a line: Photostability: NIR absorbance under ambient light. The data set is classed as physicochemical. To be noted: for decrease of absorbance after exposure to ambient light: 2 hours, absorption maximum wavelength; for NIR absorbance remaining: 31 days ambient light; for photostability compared with ICG: ambient light. How it is done:
FIG. 3 is a graph showing the photostability of QR-G1-COOH, QR-G2-COOH and ICG in DMSO. Samples were exposed to the ambient light and the change of optical density at absorption maximum wavelength was monitored over time. All samples have the initial absorbance of about 1.2 at the absorption maximum wavelength. The signals were normalized against the values at 0 hour.
To evaluate the photostability of QR-G1-COOH and QR-G2-COOH, the NIR absorbance of these molecules exposed to ambient light was monitored and the results were compared with that of the FDA approved NIR dye, indocyanine green (ICG).

A short description of data set [4]: Solubility / hydrophilicity observations. Particulars: for hydrophilicity: as sodium salts. The data set is classed as physicochemical. From the text:
The most challenging step encountered during the synthesis of QR-G1-COOH and QR-G2-COOH was the ring cyclization of biperylene 6. Many quaterrylenes reported were synthesized through a base-assisted cyclodehydrogenation reaction using molten KOH/glucose, tert-BuOK/DBN in diglyme, or K2CO3 in ethanolamine. However, these reaction systems are not applicable for the synthesis of quaterrylene 7 because of the high reactivity of aldehyde under the harsh basic conditions. Recently, Müllen's group reported milder conditions for the preparation of uaterrylenedicarboximides and rylenediimides by the Lewis acids FeCl3/CH3NO2 and AlCl3/chlorobenzene. […] The following reduction of aldehyde groups on 7 by NaBH4 yielded benzyl alcohol 8 with a relatively low yield (32%). Coupling quaterrylene 8 with dendrons 9 and 10 provided the dendrimers QR-G1-triester and QR-G2-triester in 35% and 28% yields after purification by column chromatography.

Data set [5] in a line: UV-vis absorption and emission spectra (photophysical properties). The format is physicochemical. Particulars: DMSO; for Fluorescence quantum yield Φ: ICG in methanol as standard.

“And” between values parts separate entries of the source, which are not always exact repeats. Equal entries are not always repeated.

Turning to `C[S+](C)[O-]` [DMSO, reference compound], the “live cells (positive control group)” value in data set [1] (wt-DBT cells, 5% DMSO, after 48 h) worked out at 66.9%.
As for `CC(C)c1cccc(C(C)C)c1N1C(=O)c2cc(Oc3ccc(COC(=O)CCC(=O)NC(CCC(=O)NC(CCC(=O)O)(CCC(=O)O)CCC(=O)O)(CCC(=O)NC(CCC(=O)O)(CCC(=O)O)CCC(=O)O)CCC(=O)NC(CCC(=O)O)(CCC(=O)O)CCC(=O)O)cc3)c3c4ccc5c6ccc7c8c(Oc9ccc(COC(=O)CCC(=O)NC(CCC(=O)NC(CCC(=O)O)(CCC(=O)O)CCC(=O)O)(CCC(=O)NC(CCC(=O)O)(CCC(=O)O)CCC(=O)O)CCC(=O)NC(CCC(=O)O)(CCC(=O)O)CCC(=O)O)cc9)cc9c%10c(cc(Oc%11ccc(COC(=O)CCC(=O)NC(CCC(=O)NC(CCC(=O)O)(CCC(=O)O)CCC(=O)O)(CCC(=O)NC(CCC(=O)O)(CCC(=O)O)CCC(=O)O)CCC(=O)NC(CCC(=O)O)(CCC(=O)O)CCC(=O)O)cc%11)c(c%11ccc(c%12ccc(c%13c(Oc%14ccc(COC(=O)CCC(=O)NC(CCC(=O)NC(CCC(=O)O)(CCC(=O)O)CCC(=O)O)(CCC(=O)NC(CCC(=O)O)(CCC(=O)O)CCC(=O)O)CCC(=O)NC(CCC(=O)O)(CCC(=O)O)CCC(=O)O)cc%14)cc(c2c3%13)C1=O)c4c5%12)c6c7%11)c%108)C(=O)N(c1c(C(C)C)cccc1C(C)C)C9=O` [QR-G2-COOH], the “quantum yield relative to QR-G1-COOH” value in data set [2] (Table 1) is listed as “roughly two times higher”. In addition, the “ε (molar extinction coefficient)” value in data set [2] (methanol) came to 121000 M⁻¹ cm⁻¹. For the same compound, the λem in data set [2] (methanol, excited at 720 nm) was 815 nm; in data set [2] (water, pluronic ~10 wt %/wt), 809 nm; in data set [5] it was 816 nm. Besides, the ε in data set [2] (methanol, values in order of the listed absorption bands) is reported as 1.21 10^5 M^−1 cm^−1; in data set [2] (water) it was 0.56 10^5 M^−1 cm^−1. For the same compound, the λabs in data set [2] (water) is reported as 743 nm. In addition, the “decrease of absorbance after exposure to ambient light” value (“decrease of absorbance after exposure” for short) in data set [3] (DMSO) is reported as “no significant absorbance change”. In data set [3] (DMSO, 3 days ambient light), the “absorbance change after illumination” value amounted to 3%. Besides, the NIR absorbance remaining in data set [3] (DMSO) is given as 77%. Besides, the “photostability compared with ICG” value in data set [3] is recorded as “dramatically more photostable than ICG”. For the same compound, the “cytotoxicity to DBT cells” value in data set [1] is on record as “low cytotoxicity”. The cell viability entry in data set [1] (wt-DBT cells) is “about 90%”. Further, the hydrophilicity result in data set [4] was “high hydrophilicity”. In addition, in data set [5], the “Fluorescence quantum yield Φ” value came to 0.32%.
In the case of `CC1(C)C(/C=C/C=C/C=C/C=C2\N(CCCCS(=O)(=O)O)c3ccc4ccccc4c3C2(C)C)=[N+](CCCCS(=O)(=O)[O-])c2ccc3ccccc3c21` [ICG, indocyanine green, reference compound], the “decrease of absorbance after exposure” value in data set [3] (DMSO) is 48%. In addition, the “absorbance observed after illumination” value in data set [3] (DMSO, 3 days ambient light) is reported as “no significant absorbance”.
As to `CC(C)c1cccc(C(C)C)c1N1C(=O)c2cc(Oc3ccc(COC(=O)CCC(=O)NC(CCC(=O)O)(CCC(=O)O)CCC(=O)O)cc3)c3c4ccc5c6ccc7c8c(Oc9ccc(COC(=O)CCC(=O)NC(CCC(=O)O)(CCC(=O)O)CCC(=O)O)cc9)cc9c%10c(cc(Oc%11ccc(COC(=O)CCC(=O)NC(CCC(=O)O)(CCC(=O)O)CCC(=O)O)cc%11)c(c%11ccc(c%12ccc(c%13c(Oc%14ccc(COC(=O)CCC(=O)NC(CCC(=O)O)(CCC(=O)O)CCC(=O)O)cc%14)cc(c2c3%13)C1=O)c4c5%12)c6c7%11)c%108)C(=O)N(c1c(C(C)C)cccc1C(C)C)C9=O` [QR-G1-COOH], in data set [2] (0.4% wt/wt of pluronic), the “fluorescence in pluronic compared to water” value is given as “large fluorescence enhancement”. Moreover, in data set [2] (methanol), the “ε (molar extinction coefficient)” value is 146000 M⁻¹ cm⁻¹ and 143000 M⁻¹ cm⁻¹; the λabs was 771 nm and 728 nm. Besides, the λem in data set [2] (methanol, excited at 720 nm) came to 813 nm. In data set [2] (water), the ε is recorded as 0.74 10^5 M^−1 cm^−1 and the λabs was 739 nm. For the same compound, the λem in data set [2] (water, pluronic ~0.4 wt %/wt) is on record as 807 nm. The fluorescence in water entry in data set [2] (water, excited at 720 nm) is on record as “nearly no fluorescence”. In addition, in data set [3] (DMSO), the “decrease of absorbance after exposure” value is reported as “no significant absorbance change” and the NIR absorbance remaining stood at 85%. The “absorbance change after illumination” value in data set [3] (DMSO, 3 days ambient light) amounted to 1%. The “photostability compared with ICG” value in data set [3] was “dramatically more photostable than ICG”. For the same compound, the “cytotoxicity to DBT cells” value in data set [1] is “low cytotoxicity”. In addition, the cell viability result in data set [1] (wt-DBT cells) was “about 90%”. Also, in data set [4], the hydrophilicity entry is recorded as “high hydrophilicity”. Further, in data set [5], the λem is 816 nm and the “Fluorescence quantum yield Φ” value came to 0.11%.
With `CC(C)c1cccc(C(C)C)c1N1C(=O)c2cc(Oc3ccc(COC(=O)CCC(=O)NC(CCC(=O)OC(C)(C)C)(CCC(=O)OC(C)(C)C)CCC(=O)OC(C)(C)C)cc3)c3c4ccc5c6ccc7c8c(Oc9ccc(COC(=O)CCC(=O)NC(CCC(=O)OC(C)(C)C)(CCC(=O)OC(C)(C)C)CCC(=O)OC(C)(C)C)cc9)cc9c%10c(cc(Oc%11ccc(COC(=O)CCC(=O)NC(CCC(=O)OC(C)(C)C)(CCC(=O)OC(C)(C)C)CCC(=O)OC(C)(C)C)cc%11)c(c%11ccc(c%12ccc(c%13c(Oc%14ccc(COC(=O)CCC(=O)NC(CCC(=O)OC(C)(C)C)(CCC(=O)OC(C)(C)C)CCC(=O)OC(C)(C)C)cc%14)cc(c2c3%13)C1=O)c4c5%12)c6c7%11)c%108)C(=O)N(c1c(C(C)C)cccc1C(C)C)C9=O` [QR-G1-triester], the “solubility in organic solvents” value in data set [4] (toluene, dichloromethane, chloroform, ethyl acetate, methanol) was “highly soluble”.
